From patent US20240261443A1, “COMPOUNDS AND COMPOSITIONS USEFUL AS RADIOTRACERS FOR IMAGING OF REACTIVE OXIDATIVE SPECIES” (Wake Forest University Health Sciences, priority 2019, published 2024)

Tests used:
[1] = Ex vivo serum stability; assay type: in vitro ADME; conditions: human serum, 37° C., after 120 min of tracer synthesis
Procedure: The ex vivo serum stability of [^18F]KS1 and [^18F]KS2 were analyzed in human serum samples, following previously published methods (Sai et al., Peptide-based PET imaging of the tumor restricted IL13RA2 biomarker. Oncotarget 2017, 5; Sattiraju et al., IL13RA2 targeted alpha particle therapy against glioblastoma. Journal of Nuclear Medicine 2016, 57 (supplement 2), 634; Wang et al., Evaluation of F-18-labeled amino acid derivatives and [18F]FDG as PET probes in a brain tumor-bearing animal model. Nuclear Medicine and Biology 2005, 32 (4), 367-375). Briefly, radiotracer was added to the human serum sample, and incubated at 37° C. Radioactive serum mixture was injected into the QC-HPLC system at 5 min, 30 min, 1 h, 1.5 h, 2 h, 2.5 h, and 3 h post radiotracer synthesis. Radiolysis through defluorination and/or oxidation of the radiotracers (if any) can be seen as new radiochemical peaks at different retention times (Rt) than the original product peak (Jin et al., A promising F-18 labeled PET radiotracer (-)-[18F]VAT for assessing the VAChT in vivo. Journal of Nuclear Medicine 2015, 56 (supplement 3); Koglin et al., [F-18]BAY 85-8050: A novel tumor specific probe for PET imaging-Preclinical results. Journal of Nuclear Medicine 2010, 51 (supplement 2), 1535; […] et al., Imaging COX-2 expression in cancer using PET/SPECT radioligands: current status and future directions. […]

[2] = system: SCC-61 and rSCC-61 tumors; test: microPET/CT imaging in SCC-61 and rSCC-61 tumor-bearing mice; assay type: in vivo
Text: After evaluating the complete in vitro ROS uptake and stability profile of [^18F]KS1, we performed in vivo microPET/CT scans in tumor-bearing mice. To test our hypothesis of selective binding of [^18F]KS1 to image ROS in tumor tissue, we reported the baseline and blocking PET imaging data in a murine model of PCa (Solingapuram Sai et al., Initial biological evaluations of 18F-KS1, a novel ascorbate derivative to image oxidative stress in cancer. EJNMMI Research 2019, 9 (1), 43). Further, to test the differential ROS uptake of [^18F]KS1, microPET/CT imaging experiments were performed in both SCC-61 and rSCC-61 tumor-bearing mice (n=5, 25±2.5 g).

[3] = system: SCC-61 and rSCC-61 cells; test: [18F]KS1 in vitro cell uptake in HNSCC cells; assay type: cell-based, human
Procedure: ROS efficacy was evaluated in two tumor cell lines: (1)SCC-61 and rSCC-61 cells (HNSCC) (FIG. 5), and (2) PC3 (PCa) cell lines under normoxic and hypoxic conditions (FIG. 6) following previously published protocols by our group (Sai et al., Peptide-based PET imaging of the tumor restricted IL13RA2 biomarker. Oncotarget 2017, 5; Yamamoto et al., Correlation of 18F-FLT and 18F-FDG uptake on PET with Ki-67 immunohistochemistry in non-small cell lung cancer. European Journal of Nuclear Medicine and Molecular Imaging 2007, 34 (10), 1610-1616; Solingapuram Sai et al., Radiolabeling and initial biological evaluation of [18F]KBM-1 for imaging RAR-α receptors in neuroblastoma. Bioorganic & Medicinal Chemistry Letters 2017, 27 (6), 1425-1427). Several ROS blockers including fresh solution of non-radioactive compounds KS1, KS2, SOD (10 μM) in the cell media were added to the seeded tumor cells 1.0 h prior to radiotracer addition (n=6 per blocker). All the cells were then treated with [^18F]KS1 (2.0 μCi/well, UV mass=0.4 μg/mL and S.A=3100 mCi/μmol) and incubated for 60 min (n=6) at 37° C. All the cells (both with and without blockers) were washed and lysed with lysate buffer solution. Lysate samples from each well were collected for gamma counting.
Similarly, in another experiment, human PCa-PC3 cells were cultured under normoxic (˜21% O2) or hypoxic (1% O2) conditions for 48 h. Thereafter, similar to HNSCC cells (detailed above) all assay steps including blocker treatment, radiotracer addition, incubations, washings and lysis were carried out under normoxic or hypoxic conditions. All hypoxia experiments were performed in a hypoxia chamber (Biospherix X3 Xvivo system). Plates without radioactivity were used as controls. Additional aliquots were taken from each well to measure protein concentration. The counts per minute values of each well were normalized to the amount of radioactivity added to each well and was expressed as percent uptake relative to the control condition. The data were expressed as % ID/mg of protein present in each well.
We reported the basic in vitro cell uptake assay of [^18F]KS1 in PC3 and SCC-61 cell lines using KS1 and ascorbate as blockers (Solingapuram Sai et al., Initial biological evaluations of 18F-KS1, a novel ascorbate derivative to image oxidative stress in cancer. EJNMMI Research 2019, 9 (1), 43), following previously published protocols by our group (Sai, et al., Peptide-based PET imaging of the tumor restricted IL13RA2 biomarker. Oncotarget 2017, 8 (31), 50997-51007; Solingapuram Sai et al., Radiolabeling and initial biological evaluation of [(18)F]KBM-1 for imaging RAR-α receptors in neuroblastoma. Bioorganic & medicinal chemistry letters 2017, 27 (6), 1425-1427; Sattiraju et al., IL13RA2 targeted alpha particle therapy against glioblastomas. Oncotarget 2017, 8 (26), 42997-43007). Here we report complete cell uptake of [^18F]KS1 in SCC-61 and rSCC-61 cell lines of HNSCC using several ROS blocking agents including ascorbate, SOD, catalase, DHE, and non-radioactive compounds KS1 ([…]) and few ROS inducers including doxorubicin and ferritin. These agents were added in the cell media to the seeded tumor cells 1.0 h prior to radiotracer addition (n=6 per blocker). The y counts per minute values of each well were normalized to the amount of radioactivity added to each well and the protein concentration in the well and expressed as percent uptake relative to the control condition. The data were expressed as % ID/mg of protein present in each well. […]

SMILES: O=C1O/C(=C/CCl)C(O)=C1OCc1ccc(OCC[18F])cc1 [[^18F]KS1]
- intact in serum [1]: ~90%
- tumor uptake in SCC-61 tumors versus rSCC-61 tumors ([2]; ROI analysis on PET scans): ~1.2 fold
- residual uptake in other organs, including bladder and kidney ([2]; post 1-h radiotracer injection): no residual uptake
- uptake increase with ROS inducer doxorubicin ([3]; Example 8): ~30%
- radioactive uptake in SCC-61 cells compared to rSCC-61 uptake ([3]; Example 8, 60 min, 37° C.): ~1.5 fold
- uptake blocked by nonradioactive KS1 ([3]; Example 8, KS1 10 μM added 1.0 h prior): ~40%
- uptake blocked by SOD ([3]; Example 8, SOD 10 μM added 1.0 h prior): ~60%
- radioactive uptake in SCC-61 cells compared to rSCC-61 uptake ([3]; Example 14): ~3 fold
- radioactive uptake increased by ROS-inducer Dox ([3]; Example 14): ~20%
- radioactive uptake increased by ferritin ([3]; Example 14): ~32%
- radioactive uptake inhibited by catalase ([3]; Example 14): ~90%
- uptake in SCC-61 cells blocked by nonradioactive KS1 ([3]; Example 14, KS1 (100 PM) added 1.0 h prior): ~70%
- uptake in SCC-61 cells blocked by SOD ([3]; Example 14, added 1.0 h prior): ~65%
- uptake in SCC-61 cells blocked by ascorbate ([3]; Example 14, added 1.0 h prior): ~65%
